The supplement of paper PMC10331698
± gives the standard deviation of the averaged measurements.

What was measured:
Test in all cases: level (log10 ratio to DMSO vehicle control); higher = higher biomarker level / cell amount than vehicle control
Conditions in all cases: in DMSO
Perfluorooctanamide = compound: NC(=O)C(F)(F)C(F)(F)C(F)(F)C(F)(F)C(F)(F)C(F)(F)C(F)(F)F [Perfluorooctanamide]
Experimental: (§1)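 BioMAP Diversity Plus panel of 12 human primary cell co-culture systems (3C, 4H, LPS, SAg, BT, BF4T, BE3C, CASM3C, HDF3CGF, KF3CT, MyoF, Mphg). Compounds were added 1 h before stimulation and left for 24 h (MyoF 48 h; BT 72 h for soluble read-outs or 6 d for IgG). Biomarkers were read by ELISA, cytotoxicity by SRB, PBMC viability and proliferation by Alamar Blue. Each well value was divided by the mean of 8 DMSO control wells on the same plate and log10 transformed; duplicate blinded samples were tested at 4 concentrations.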

[1] = compound: C=CC(=O)OCCC(F)(F)C(F)(F)C(F)(F)C(F)(F)F [2-(Perfluorobutyl)ethyl acrylate]
Experimental: as §1

Perfluorooctanamidine = compound: N=C(N)C(F)(F)C(F)(F)C(F)(F)C(F)(F)C(F)(F)C(F)(F)C(F)(F)F [Perfluorooctanamidine]
Experimental: as §1

[2] = compound: O=C(O)CCC(F)(F)C(F)(F)C(F)(F)C(F)(F)C(F)(F)F [2H,2H,3H,3H-Perfluorooctanoic acid]
Experimental: as §1

[3] = compound: OCC(F)(F)C(F)(F)C(F)(F)C(F)(F)C(F)(F)C(F)F [1H,1H,7H-Dodecafluoro-1-heptanol]
Experimental: as §1

[4] = compound: CC(C)(C)C(=O)CC(=O)C(F)(F)C(F)(F)C(F)(F)F [(Heptafluorobutanoyl)pivaloylmethane]
Experimental: as §1

[5] = compound: O=C(O)C(F)(F)C(F)(F)C(F)(F)C(F)(F)C(F)(F)C(F)(F)C(F)(F)C(F)(F)Cl [9-Chloro-perfluorononanoic acid]
Experimental: as §1

Test System	level (log10) (Perfluorooctanamide; 6700 nM)	level (log10) (Perfluorooctanamide; 20000 nM)	level (log10) (Perfluorooctanamide; 60000 nM)	level (log10) ([1]; 6700 nM)	level (log10) ([1]; 20000 nM)	level (log10) ([1]; 60000 nM)	level (log10) (Perfluorooctanamidine; 6700 nM)	level (log10) (Perfluorooctanamidine; 20000 nM)	level (log10) (Perfluorooctanamidine; 60000 nM)	level (log10) ([2]; 6700 nM)	level (log10) ([2]; 20000 nM)	level (log10) ([2]; 60000 nM)	level (log10) ([3]; 6700 nM)	level (log10) ([3]; 20000 nM)	level (log10) ([3]; 60000 nM)	level (log10) ([4]; 6700 nM)	level (log10) ([4]; 20000 nM)	level (log10) ([4]; 60000 nM)	level (log10) ([5]; 6700 nM)	level (log10) ([5]; 20000 nM)
3C:CCL2/MCP-1	0.0085 ± 0.028	-0.01 ± 0.0014	0.0105 ± 0.054	-0.0105 ± 0.021	-0.0305 ± 0.0035	-0.0245 ± 0.029	0.0185 ± 0.012	0.0085 ± 0.011	0.062	0.0045 ± 0.015	0.006 ± 0.034	0.01 ± 0.016	0.0225 ± 0.021	0.0145 ± 0.023	0.0325 ± 0.012	-0.0035 ± 0.0021	-0.007 ± 0.018	0.0015 ± 0.043	0.015 ± 0.054	-0.0065 ± 0.037
3C:CD54/ICAM-1	-0.012 ± 0.011	-0.003 ± 0.013	0.0335 ± 0.012	0.0055 ± 0.0021	-0.01 ± 0.0042	-0.01 ± 0.011	-0.0065 ± 0.0035	-0.038 ± 0.013	-0.049	0.0005 ± 0.0064	-0.0055 ± 0.018	-0.0175 ± 0.022	-0.009 ± 0.011	-0.003 ± 0.0099	-0.0055 ± 0.0021	-0.0015 ± 0.019	-0.0095 ± 0.005	0.03 ± 0.011	-0.0075 ± 0.0092	-0.0085 ± 0.019
3C:CD62E/E-Selectin	-0.009 ± 0.013	-0.0115 ± 0.0078	0.004 ± 0.025	-0.016 ± 0.0028	-0.059 ± 0.0014	-0.163 ± 0.05	-0.0045 ± 0.023	-0.005 ± 0.027	-0.039	-0.01 ± 0.038	-0.015 ± 0.058	0.006 ± 0.033	-0.0135 ± 0.025	-0.007 ± 0.0042	0.0205 ± 0.025	-0.0155 ± 0.0092	-0.022 ± 0.0099	-0.003 ± 0.017	-0.005 ± 0.0057	0.001 ± 0.017
3C:CD106/VCAM-1	-0.023 ± 0.0028	-0.005 ± 0.0099	-0.004 ± 0.0057	-0.0335 ± 0.005	-0.0715 ± 0.039	-0.14 ± 0.04	-0.017 ± 0.028	-0.037 ± 0.031	-0.088	-0.021 ± 0.0057	-0.0295 ± 0.026	-0.025 ± 0.023	0.001 ± 0.0042	-0.0245 ± 0.032	-0.0195 ± 0.016	0.0015 ± 0.00071	-0.0045 ± 0.026	0.019 ± 0.018	-0.005 ± 0.0014	-0.001 ± 0.021
3C:CD141/Thrombomodulin	-0.006 ± 0.02	-0.0115 ± 0.022	-0.0185 ± 0.039	-0.059 ± 0.027	-0.0955 ± 0.025	-0.142 ± 0.027	-0.015 ± 0.031	-0.021 ± 0.024	-0.013	-0.032 ± 0.078	-0.0295 ± 0.022	-0.0405 ± 0.029	-0.007 ± 0.057	0.0065 ± 0.044	-0.017 ± 0.058	-0.0095 ± 0.015	0.024 ± 0.011	0.187 ± 0.014	-0.017 ± 0.016	-0.008 ± 0.02
3C:CD142/Tissue Factor	0.029 ± 0.033	0.009 ± 0.013	0.0245 ± 0.06	-0.0105 ± 0.043	-0.127 ± 0.034	-0.381 ± 0.016	-0.02 ± 0.018	-0.0105 ± 0.012	-0.014	0.009 ± 0.0028	0.018 ± 0.0071	0.022 ± 0.0085	0.001 ± 0.0057	0.017 ± 0.041	0.001 ± 0.05	-0.0205 ± 0.015	-0.0235 ± 0.005	-0.053 ± 0.014	-0.008 ± 0.057	0.025 ± 0.0057
BE3C:Keratin 8/18	-0.001 ± 0.0085	-0.009 ± 0.0028	-0.0105 ± 0.0078	-0.0135 ± 0.025	0 ± 0.016	0.006 ± 0.013	-0.0165 ± 0.0021	-0.014 ± 0.0057	0.007	0.0065 ± 0.0021	-0.015 ± 0.011	-0.004 ± 0.0057	-0.004 ± 0.0042	0.006 ± 0.014	-0.0135 ± 0.0035	0.009 ± 0.0014	0.009 ± 0.0057	0.001 ± 0.025	-0.0025 ± 0.015	0.0095 ± 0.0092
BE3C:MMP-1	0.0075 ± 0.0078	0.014 ± 0.0071	0.022 ± 0.018	0.0175 ± 0.028	-0.007 ± 0.016	0.0705 ± 0.022	0.0525 ± 0.03	0.057 ± 0.044	0.262	0.019 ± 0.013	0.0225 ± 0.028	0.072 ± 0.048	0.0045 ± 0.022	0 ± 0.025	0.029 ± 0.0057	-0.0025 ± 0.0035	-0.019 ± 0.013	0.0095 ± 0.033	0.083 ± 0.024	0.277 ± 0.0064
BE3C:MMP-9	-0.0085 ± 0.0064	0.002 ± 0.0028	0.0015 ± 0.013	-0.004 ± 0.0071	-0.006 ± 0.0014	-0.028 ± 0.0085	-0.0115 ± 0.005	-0.015 ± 0.023	-0.001	-0.0025 ± 0.025	-0.003 ± 0.014	0.0195 ± 0.033	-0.009 ± 0.0028	-0.0105 ± 0.00071	-0.02 ± 0.0028	-0.0145 ± 0.018	0.004 ± 0.0014	-0.032 ± 0.04	0.001 ± 0.014	-0.04 ± 0.014
BE3C:PAI-I	-0.01 ± 0.016	0.016 ± 0.0085	0.022 ± 0.0057	0.0125 ± 0.033	0.038 ± 0.018	0.076 ± 0.021	0.0015 ± 0.00071	-0.006 ± 0.0099	-0.021	-0.0035 ± 0.0064	0.027 ± 0.011	0.044 ± 0.0057	-0.007 ± 0.0057	-0.009 ± 0.0099	-0.0105 ± 0.0078	-0.028 ± 0.068	-0.009 ± 0.083	-0.0145 ± 0.1	0.0005 ± 0.0035	-0.215 ± 0.017
BE3C:SRB	-0.005 ± 0.0057	-0.003 ± 0.0057	0.0005 ± 0.0035	-0.0035 ± 0.005	-0.0055 ± 0.0021	-0.0015 ± 0.0021	-0.0075 ± 0.005	-0.001 ± 0.016	0.009	0.003 ± 0.0028	-0.0015 ± 0.005	0.012 ± 0.018	0.001 ± 0.0071	-0.009 ± 0.011	0.0025 ± 0.00071	-0.0035 ± 0.0035	-0.0035 ± 0.00071	-0.0075 ± 0.019	-0.0045 ± 0.0064	-0.0805 ± 0.005
BE3C:tPA	0.008 ± 0.018	0.0385 ± 0.011	0.049 ± 0.05	-0.036 ± 0.041	-0.056 ± 0.0014	-0.13 ± 0.018	0 ± 0.0028	-0.006 ± 0.0014	0.019	-0.0005 ± 0.005	-0.0035 ± 0.013	0.0265 ± 0.013	-0.0125 ± 0.0064	-0.0285 ± 0.018	-0.029 ± 0.018	-0.026 ± 0.0071	-0.0035 ± 0.025	-0.0275 ± 0.032	0.0195 ± 0.023	-0.0985 ± 0.023
BE3C:uPA	0.0025 ± 0.0035	0.0005 ± 0.005	0.0135 ± 0.0021	0.0075 ± 0.032	-0.0035 ± 0.022	-0.0175 ± 0.015	-0.008 ± 0.011	-0.0095 ± 0.0078	0.004	0.0025 ± 0.011	-0.009 ± 0.0085	0.0025 ± 0.005	-0.0055 ± 0.032	-0.004 ± 0.027	-0.0055 ± 0.0035	0.0025 ± 0.018	-0.0035 ± 0.023	0.002 ± 0.03	0.0035 ± 0.011	-0.0125 ± 0.011
CASM3C:CCL2/MCP-1	-0.013 ± 0.03	-0.013 ± 0.014	-0.014 ± 0.0099	-0.001 ± 0.0099	-0.0085 ± 0.0064	-0.0035 ± 0.0064	0.008 ± 0.024	0.011 ± 0.034	0.085	-0.002 ± 0.014	0.002 ± 0.0042	0.013 ± 0.028	-0.0065 ± 0.013	-0.017 ± 0.02	-0.008 ± 0.033	-0.008 ± 0.017	-0.0025 ± 0.021	-0.0075 ± 0.0092	-0.0085 ± 0.011	-0.011 ± 0.0028
